Peptide text beside a SMILES is read from it.
How the values were obtained:
[1] = cited from earlier work
[2] = test system: groupe de huit goûteurs expérimentés; assay: Sweetening power judged by a panel of eight experienced tasters against a sucrose reference solution; assay type: in vivo; conditions: weight basis; for Pouvoir édulcorant: Table II, relative to a 2 % sucrose solution; for pouvoir édulcorant, sur une base pondérale: approximate
In short: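 Panel of eight experienced tasters compared aqueous solutions of compound at varying concentrations with a sucrose reference at 2 %, sometimes 5 % and 10 %. Sweetening power is the weight ratio of sucrose to compound at equal sweetness intensity, as judged by a majority of tasters, and depends on the reference concentration.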

[3] = Stability in solution at pH 3 and 70 °C, remaining compound determined by HPLC; assay type: physicochemical; conditions: pH 3, phosphate buffer 1mM; for remaining at 168 h: 1 mm phosphate buffer, after seven days, read-out: composé restant
Protocol: Les agents édulcorants de la présente invention sont généralement stables. La stabilité est déterminée à pH 3 en solution dans un tampon phosphate 1mM à 70 °C. La concentration du composé restant est déterminée par chromatographie liquide haute pression (HPLC). Par exemple, après six jours dans de telles conditions, on retrouve encore la moitié du composé de l'exemple 14 dans lequel X4 est CN, X3, X5, R1, R3 et R4 sont H, A est N, et R2 est (S) CH (CH3) C6H5. On améliore la stabilité lorsque l'on remplace l'atome d'hydrogène de R1 par CH3. Ainsi, après sept jours dans les mêmes conditions , on retrouve encore 88 % du composé de l'exemple 31 dans lequel X3 et X5 sont Cl, X4, R3 et R4 sont H, A est N, R1 est CH3, et R2 est CH2C6H5. De la même manière, toujours après sept jours et dans les mêmes conditions, on retrouve 86 % du composé de l'exemple 33 dans lequel X4 est CN, X3, X5, R3 et R4 sont H, A est N, R1 est CH3, et R2 est CH2C6H5.

[4] = by comparison with a 2 % sucrose solution
[5] = by comparison with a 5 % sucrose solution
[6] = by comparison with a 10 % sucrose solution

Row | Molecule | Pouvoir sucrant (saccharose = 1) [1] | Pouvoir édulcorant [2] | pouvoir édulcorant, sur une base pondérale [2, 4] | further results
1 | CC1=CC(=O)NS(=O)(=O)O1 [Acésulfame-K] | 200 |  |  | 
2 | Glycyrrhizine | 50 |  |  | 
3 | O=C1NS(=O)(=O)c2ccccc21 [Saccharine] | 400 |  |  | 
4 | C[C@@H](NC(=O)[C@@H](N)CC(=O)O)C(=O)NC1C(C)(C)SC1(C)C [Alitame] | 2000 |  |  | 
5 | Cyclamate de sodium | 30 |  |  | 
6 | CN(Cc1ccccc1)C(=Nc1ccc(C#N)cc1)NCC(=O)O [Exemple 33, acide N-[N-méthyl-N-benzylamino(4-cyanophénylimino)méthyl]-2-aminoéthanoique] |  | 3000 | ~3 000 fois celui du saccharose | pouvoir édulcorant, sur une base pondérale [2, 5]: ~1800 times sucrose; pouvoir édulcorant, sur une base pondérale [2, 6]: ~1 200 fois celui du saccharose; remaining at 168 h [3]: 86%
7 | CN(Cc1ccccc1)C(=Nc1cc(Cl)cc(Cl)c1)NCC(=O)O [Exemple 31, acide N-[N-méthyl-N-benzylamino (3,5-dichlorophénylimino)méthyl]-2-aminoéthanoïque] |  | 20000 | ~20 000 fois celui du saccharose | remaining at 168 h [3]: 88%
8 | O=C(O)CNC(=Nc1cc(Cl)cc(Cl)c1)Nc1cc(Cl)cc(Cl)c1 [Exemple 81, acide N-[N-3,5-dichlorophénylamino (3,5-dichlorophénylimino)méthyl]-2-aminoéthanoïque] |  | 1000 | ~1 000 fois celui du saccharose | 
9 | Cc1ccc(NC(=Nc2ccc(C#N)cc2)NCC(=O)O)cc1 [Exemple 66, acide N-[N-(4-méthylphényl)amino(4-cyanophénylimino)méthyl]--2-aminoéthanoïque] |  | 7000 | ~7 000 fois celui du saccharose | 
10 | OC[C@H]1O[C@H](O[C@]2(CCl)O[C@H](CCl)[C@@H](O)[C@@H]2O)[C@H](O)[C@@H](O)[C@H]1Cl [Trichlorogalactosucrose] | 2000 |  |  | 
11 | CCC(C)(C)NC(=Nc1ccc(C#N)cc1)NCC(=O)O [Exemple 38, acide N-[N-(1,1-diméthylpropyl)amino(4-cyanophénylimino)méthyl]-2-aminoéthanoïque] |  | 300 | ~300 fois celui du saccharose | 
12 | OC[C@@H](O)[C@H](O)[C@@H](O)CO [Xylitol] | 1 |  |  | 
13 | COC(=O)[C@H](Cc1ccccc1)NC(=O)[C@@H](N)CC(=O)O [Aspartame] (H-Asp-Phe-OMe) | 200 |  |  | 
14 | N#CN=C(NCC(=O)O)Nc1cccc(Cl)c1 [Exemple 73, acide N-[cyanoimino(3-chlorophénylamino)méthyl]-2-aminoéthanoïque] |  | 80 | ~80 fois celui du saccharose | 
15 | N#Cc1ccc(N=C(NCC(=O)O)NCC23CC4CC(CC(C4)C2)C3)cc1 [Exemple 72, acide N-[N-(l-adamantylméthyl)amino(4-cyanophénylimino)méthyl]-2-aminoéthanoïque] |  | 23000 | ~23 000 fois celui du saccharose | 
16 | COC(=O)c1ccc(N=C(NCC(=O)O)NCC2CCCCC2)cc1 [Exemple 60, acide N-[N-cyclohexylméthylamino(4-méthoxycarbonylphénylimino)méthyl]-2-aminoéthanoïque] |  | 1300 | ~1 300 fois celui du saccharose | pouvoir édulcorant, sur une base pondérale [2, 5]: ~900 fois celui du saccharose; pouvoir édulcorant, sur une base pondérale [2, 6]: ~500 fois celui du saccharose
17 | O=C(O)CNC(=Nc1cc(Cl)cc(Cl)c1)NC1CCCCCCC1 [Exemple 46, acide N-[N-cyclooctylamino (3,5-dichlorophénylimino)méthyl]-2-aminoéthanoïque] |  | 60000 | ~60 000 fois celui du saccharose | 

Row | Molecule | Pouvoir sucrant (saccharose = 1) [1] | Pouvoir édulcorant [2] | pouvoir édulcorant, sur une base pondérale [2, 4] | further results
18 | C=C1C[C@@]23CC[C@H]4[C@@](C)(CCC[C@@]4(C)C(=O)O[C@@H]4O[C@H](CO)[C@@H](O)[C@H](O)[C@H]4O)[C@@H]2CC[C@]1(O[C@@H]1O[C@H](CO)[C@@H](O)[C@H](O)[C@H]1O[C@@H]1O[C@H](CO)[C@@H](O)[C@H](O)[C@H]1O)C3 [Stévioside] | 300 |  |  | 
19 | N#CC(C#N)=C(NCC(=O)O)Nc1cc(Cl)cc(Cl)c1 [Exemple 30, acide N-[2,2-dicyano(3,5-dichlorophénylamino)éthényl]-2-aminoéthanoïque] |  | 30 |  | 
20 | N#Cc1ccc(N=C(NCCc2ccccc2)NCC(=O)O)cc1 [Exemple 53, acide N-[N-phényléthylamino(4-cyanophénylimino)méthyl]-2-aminoéthanoïque] |  | 8 500 | ~8 500 fois celui du saccharose | pouvoir édulcorant, sur une base pondérale [2, 5]: ~6 100 fois celui du saccharose; pouvoir édulcorant, sur une base pondérale [2, 6]: ~4 200 fois celui du saccharose
21 | CCNC(=Nc1ccc(C#N)cc1)NCC(=O)O [Exemple 35, acide N-[N-éthylamino(4-cyanophénylimino)méthyl]-2-aminoéthanoïque] |  | 350 | ~350 fois celui du saccharose | 
22 | C[C@H](NC(=Nc1ccc(O)cc1)NCC(=O)O)c1ccccc1 [Exemple 20, acide N-[N-(S)-α-méthylbenzylamino (4-hydroxyphénylimino)méthyl]-2-aminoéthanoïque] |  | 400 | ~400 fois celui du saccharose | 
23 | C[C@H](NC(=Nc1ccc(C#N)cc1)NCC(=O)O)c1ccccc1 [Exemple 14, acide N-[N-(S)-α-méthylbenzylamino (4-cyanophénylimino)méthyl]-2-aminoéthanoïque] |  | 28000 | ~28 000 fois celui du saccharose | pouvoir édulcorant, sur une base pondérale [2, 5]: ~20 000 fois celui du saccharose; pouvoir édulcorant, sur une base pondérale [2, 6]: ~10 000 fois celui du saccharose; composé restant ([3]; after six days): la moitié
24 | Cc1ccc(N=C(NCC(=O)O)N[C@@H](C)c2ccccc2)cc1 [Exemple 12, acide N-[N-(S)-a-méthylbenzylamino (4-méthylphénylimino)méthyl]-2-aminoéthanoïque] |  | 800 | ~800 fois celui du saccharose | 
25 | N#Cc1ccc(N=C(NCC(=O)O)NC2CCCCCCC2)cc1Cl [Exemple 49, acide N-[N-cyclooctylamino(3-chloro-4-cyanophénylimino)méthyl]-2-aminoéthanoïque] |  | 100000 | ~100 000 fois celui du saccharose | 
26 | C[C@H](NC(=Nc1cc(F)cc(F)c1)NCC(=O)O)c1ccccc1 [Exemple 27, acide N-[N-(S)-α-méthylbenzylamine (3,5-difluorophënylimino)méthyl]-2-aminoéthanoïque] |  | 15000 | ~15 000 fois celui du saccharose | 
27 | CN(C(=NCc1ccccc1)NCC(=O)O)c1ccccc1 [Exemple 84, acide N-[benzylimino(N-méthyl-N-phénylamino)méthyl]-2-aminoéthanoïque] |  | 200 | ~200 fois celui du saccharose | 
28 | Cc1cc(N=C(NCC(=O)O)N[C@@H](C)c2ccccc2)ccc1C#N [Exemple 22, acide N-[N-(S)-a-méthylbenzylamino (4-cyano-3-méthylphénylimino)méthyl]-2-aminoéthanoïque] |  | 50000 | ~50 000 fois celui du saccharose | 
29 | O=C(O)CN=C(NCC1CCCCC1)Nc1ccc(C(=O)O)cc1 [Exemple 61, acide N-[N-cyclohexylméthylamino(4-carboxyphénylimino)méthyl]-2-aminoéthanoïque] |  | 50 | ~50 fois celui du saccharose | 
30 | C[C@H](NC(=Nc1cc(Cl)c(Cl)c(Cl)c1)NCC(=O)O)c1ccccc1 [Exemple 28, acide N-[N-(S)-α-méthylbenzylamino (3,4,5-trichlorophénylimino)méthyl]-2-aminoéthanoïque] |  | 35000 | ~35 000 fois celui du saccharose | 
31 | O=C(O)CNC(=Nc1ccccc1)Nc1ccccc1 [Exemple 40, acide N-[N-phénylamino(phénylimino)méthyl]-2-aminoéthanoique] |  | 500 | ~500 fois celui du saccharose | 
32 | COc1ccc(CCC(=O)c2c(O)cc(O[C@@H]3O[C@H](CO)[C@@H](O)[C@H](O)[C@H]3O[C@@H]3O[C@@H](C)[C@H](O)[C@@H](O)[C@H]3O)cc2O)cc1O [Néohespéridine dihydrochalcone] | 1000 |  |  | 
33 | C[C@H](NC(=Nc1cccc(C#N)c1)NCC(=O)O)c1ccccc1 [Exemple 7, acide N-[N-(S)-α-méthylbenzylamino (3-cyanophénylimino)méthyl]-2-aminoéthanoïque] |  | 5 500 | ~5 500 fois celui du saccharose | 

From patent EP0241395A2, “Sweeteners derived from n-phenylguanidinoacetic and n-phenylethananamidinacetic acids, and compositions containing such sweeteners” (UNIVERSITE CLAUDE BERNARD - LYON 1, priority 1986, dated 1987)
